Patent US11214803B2, “Modulators of YAP1 expression” (Ionis Pharmaceuticals, Inc., priority 2019, dated 2022)
pIC50: −log10 of the molar value. Strand notation (5' to 3'): a small letter for the sugar, then the base; units joined by * are phosphorothioate-linked, units joined directly phosphodiester-linked; [ ] holds rarer units or linkages, { } end groups; capitals alone tell only the bases. k = constrained ethyl (cEt); [5mC] = 5-methylcytosine; d = 2'-deoxy (DNA)

Assays:
[1] = system: Yap1 mRNA; assay: Antisense inhibition of human Yap1 in A-431 cells by cEt gapmers, single dose (Example 1, RTS4814); assay type: cell-based
Method in brief: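 Free uptake of 2,000 nM 3-10-3 cEt gapmer (16-mer, full phosphorothioate, 5-methylcytosines) in A-431 cells for ~48 h. Yap1 mRNA quantified by qRT-PCR with set RTS4814, normalized to total RNA (RiboGreen), and expressed as % of untreated control; asterisked values target the amplicon region.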

[2] = system: Yap1 mRNA; assay: Antisense inhibition of human Yap1 in A-431 cells by cEt gapmers, single dose (Example 3, RTS36584); assay type: cell-based; conditions: A-431 cells, 5,000 cells per well
Method in brief: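 A-431 cells were treated by free uptake with 2,000 nM modified oligonucleotide (3-10-3 cEt gapmers, full phosphorothioate, 5-methylcytosines) for about 48 hours. Yap1 mRNA was quantified by real-time RT-PCR, normalized to RiboGreen total RNA, and expressed as % of untreated control; asterisked values mark oligonucleotides targeting the amplicon region.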

[3] = system: Yap1 mRNA; assay: Antisense inhibition of human Yap1 in SNU-449 cells by modified oligonucleotides, single dose (Example 5, RTS36584); assay type: cell-based
Method in brief: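 SNU-449 cells (10,000/well) took up 2,000 nM oligonucleotide by free uptake for about 48 h. Yap1 mRNA was measured by qRT-PCR with primer probe set RTS36584 and normalised to RIBOGREEN total RNA. Values are % of untreated control; asterisked oligos target the amplicon region.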

[4] = Tolerability in Balb/c mice, body and organ weights (Example 12); assay type: in vivo; conditions: male Balb/c mice, 50 mg/kg s.c. twice a week for four weeks (8 treatments), end of study (day 26)
Experimental: (§1) Groups of male Balb/c mice at 6-7 weeks of age (obtained from Taconic) were injected subcutaneously twice a week for four weeks (for a total of 8 treatments) with 50 mg/kg of modified oligonucleotides. One group of male Balb/c mice was injected with PBS. Mice were euthanized on day 26 post start of treatment (24 hours following the final administration).
Body weights of Balb/c mice were measured at the end of the study, and the average body weight for each group is presented in the table below. Modified oligonucleotides that caused any changes in organ weights outside the expected range for modified oligonucleotides were excluded from further studies.

[5] = Tolerability in Balb/c mice, plasma chemistry markers (Example 12); assay type: in vivo; conditions: 50 mg/kg subcutaneously twice a week for four weeks
Experimental: Balb/c mice were treated with modified oligonucleotides selected from studies described above and evaluated for changes in the levels of various plasma chemistry markers.
as §1

[6] = system: Yap1 mRNA; assay: Dose-dependent inhibition of human Yap1 in A-431 cells (Example 7, 10,000 cells per well, RTS36584); assay type: cell-based; conditions: free uptake; for Yap1 mRNA, % UTC: A-431 cells 10,000 cells per well, 48 hours
Method in brief: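 A-431 cells at 10,000 per well received modified oligonucleotides by free uptake at several doses. After about 48 hours, Yap1 mRNA was quantified with primer-probe set RTS36584, normalized to RIBOGREEN total RNA and expressed as % untreated control. IC50 came from linear regression on a log/linear plot.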

[7] = A-431 cells, 5,000 cells per well, free uptake, 2,000 nM modified oligonucleotide, approx. 48 hours, RTS4814, normalized to RIBOGREEN, Table 3
[8] = Table 8, free uptake, 2,000 nM, approximately 48 hours, RTS36584, normalized to RIBOGREEN, Yap1 mRNA relative to untreated control cells
[9] = Table 1, A-431 cells, free uptake, 2,000 nM, approximately 48 hours, RTS4814, Yap1 mRNA relative to untreated control cells
[10] = Table 2, A-431 cells, free uptake, 2,000 nM, approximately 48 hours, RTS4814, Yap1 mRNA relative to untreated control cells

715483 (antisense k[5mC]*kT*k[5mC]*dT*dT*dT*dG*dG*dA*dA*dA*d[5mC]*d[5mC]*kA*kT*kT) [Compound 715483]
YAP1 (% UTC) [1, 7]: 15 % UTC
YAP1 (% UTC) [2, 8]: 2 % UTC
YAP1 (% UTC) ([2]; Table 9, free uptake, 2,000 nM, approximately 48 hours, RTS36584, normalized to RIBOGREEN, Yap1 mRNA relative to untreated control cells): 1 % UTC
YAP1 (% UTC) ([2]; Table 10, free uptake, 2,000 nM oligonucleotide, approx. 48 hours, primer probe set RTS36584, Yap1 mRNA normalized to RIBOGREEN, percent of untreated control): 2 % UTC
YAP1 (% UTC) ([2]; Table 11, free uptake, 2,000 nM oligonucleotide, approx. 48 hours, primer probe set RTS36584, Yap1 mRNA normalized to RIBOGREEN, percent of untreated control): 1 % UTC
YAP1 (% UTC) ([2]; Table 12, free uptake, 2,000 nM modified oligonucleotide, approx. 48 hours, RTS36584, normalized to RIBOGREEN, Yap1 mRNA relative to untreated control cells): 1 % UTC
YAP1 (% UTC) ([2]; Table 13, free uptake, 2,000 nM modified oligonucleotide, approx. 48 hours, RTS36584, normalized to RIBOGREEN, Yap1 mRNA relative to untreated control cells): 1 % UTC

715487 (antisense kA*kT*kT*dA*d[5mC]*dT*dT*d[5mC]*dA*dT*dA*dG*d[5mC]*kT*kT*kA) [Compound 715487]
YAP1 (% UTC) ([3]; Table 39, SNU-449 cells, 10,000 cells per well, free uptake, 2,000 nM oligonucleotide, approx. 48 hours, RTS36584, normalized to RIBOGREEN, Yap1 mRNA relative to untreated control): 12 % UTC
YAP1 (% UTC) ([3]; Table 40 (separate experiment), SNU-449 cells, 10,000 cells per well, free uptake, 2,000 nM oligonucleotide, approx. 48 hours, RTS36584, normalized to RIBOGREEN, Yap1 mRNA relative to untreated control): 28 % UTC
YAP1 (% UTC) ([3]; Table 41, SNU-449 cells, 10,000 cells per well, free uptake, 2,000 nM modified oligonucleotide, approximately 48 hours, RTS36584, normalized to RIBOGREEN, Yap1 mRNA relative to untreated control cells): 28 % UTC
YAP1 (% UTC) ([3]; Table 42 (separate experiment), SNU-449 cells, 10,000 cells per well, free uptake, 2,000 nM modified oligonucleotide, approximately 48 hours, RTS36584, normalized to RIBOGREEN, Yap1 mRNA relative to untreated control cells): 29 % UTC
YAP1 (% UTC) ([3]; Table 43 experiment, SNU-449 cells, 10,000 cells per well, free uptake, 2,000 nM, approximately 48 hours, RTS36584, Yap1 mRNA normalized to RIBOGREEN, relative to untreated control cells): 25 % UTC
YAP1 (% UTC) ([3]; Table 44 experiment, SNU-449 cells, 10,000 cells per well, free uptake, 2,000 nM, approximately 48 hours, RTS36584, Yap1 mRNA normalized to RIBOGREEN, relative to untreated control cells): 18 % UTC
YAP1 (% UTC) ([3]; Table 45, Yap1 mRNA as percent of untreated control, SNU-449 cells, single dose): 28 % UTC
YAP1 (% UT) ([3]; Table 46, Yap1 mRNA as percent of untreated control, SNU-449 cells, single dose): 25 % UT
YAP1 (% UT) ([3]; Table 48, Yap1 mRNA level relative to untreated control, modified oligonucleotides targeting SEQ ID NO.: 1 and 2): 34 % UT
YAP1 (% UT) ([3]; Table 49, Yap1 mRNA level relative to untreated control, modified oligonucleotides targeting SEQ ID NO.: 1 and 2): 30 % UT
YAP1 (% UT) ([3]; Table 50, Yap1 mRNA remaining as percent of untreated control (UT), SNU-449 cells, single dose): 31 % UT
YAP1 (% UT) ([3]; Table 51, Yap1 mRNA remaining as percent of untreated control (UT), SNU-449 cells, single dose): 24 % UT
YAP1 (% UT) ([3]; Table 52, Yap1 mRNA, modified oligonucleotides targeting SEQ ID NO: 1 and 2): 29 % UT
YAP1 (% UT) ([3]; Yap1 mRNA, percent of untreated control, modified oligonucleotides targeting SEQ ID NO: 1 and 2, Table 47): 39 % UT
YAP1 (% UTC) [1, 9]: 22 % UTC

715491 (antisense kA*kA*k[5mC]*d[5mC]*dA*dA*d[5mC]*dT*dA*dT*dT*dA*d[5mC]*kT*kT*k[5mC]) [Compound 715491]
YAP1 (% UTC) [1, 10]: 71 % UTC
YAP1 (% UTC) [2, 8]: 8 % UTC

715623 (antisense k[5mC]*k[5mC]*kT*dA*dA*dG*dA*dG*dT*dA*dA*dA*dA*kA*kA*kT) [Compound 715623]
YAP1 (% UTC) [1, 10]: 113 % UTC

715624 (antisense kT*kG*k[5mC]*d[5mC]*dT*dA*dA*dG*dA*dG*dT*dA*dA*kA*kA*kA) [Compound 715624]
YAP1 (% UTC) [1, 7]: 123 % UTC

715625 (antisense kA*kT*kT*dG*d[5mC]*d[5mC]*dT*dA*dA*dG*dA*dG*dT*kA*kA*kA) [Compound 715625]
YAP1 (% UTC) [1, 9]: 99 % UTC

715626 (antisense kA*k[5mC]*k[5mC]*dT*dG*dA*d[5mC]*dA*dT*dT*dT*dT*dG*kG*kA*kG) [Compound 715626]
YAP1 (% UTC) [1, 10]: 64 % UTC

715627 (antisense k[5mC]*kT*kA*d[5mC]*d[5mC]*dT*dG*dA*d[5mC]*dA*dT*dT*dT*kT*kG*kG) [Compound 715627]
YAP1 (% UTC) [1, 7]: 88 % UTC

715628 (antisense kG*k[5mC]*k[5mC]*dT*dA*d[5mC]*d[5mC]*dT*dG*dA*d[5mC]*dA*dT*kT*kT*kT) [Compound 715628]
YAP1 (% UTC) [1, 9]: 114 % UTC

715629 (antisense kG*kA*kG*d[5mC]*d[5mC]*dT*dA*d[5mC]*d[5mC]*dT*dG*dA*d[5mC]*kA*kT*kT) [Compound 715629]
YAP1 (% UTC) [1, 10]: 112 % UTC

715630 (antisense kA*kA*kG*dA*dG*d[5mC]*d[5mC]*dT*dA*d[5mC]*d[5mC]*dT*dG*kA*k[5mC]*kA) [Compound 715630]
YAP1 (% UTC) [1, 7]: 94 % UTC

715631 (antisense kA*kT*kA*dA*dG*dA*dG*d[5mC]*d[5mC]*dT*dA*d[5mC]*d[5mC]*kT*kG*kA) [Compound 715631]
YAP1 (% UTC) [1, 9]: 134 % UTC

715632 (antisense kA*kT*k[5mC]*d[5mC]*dA*dA*dT*dT*dA*dT*dG*dT*d[5mC]*k[5mC]*k[5mC]*kA) [Compound 715632]
YAP1 (% UTC) [1, 10]: 109 % UTC

715633 (kG*kT*kG*dA*dT*dA*dG*dG*dT*dG*d[5mC]*d[5mC]*dA*k[5mC]*kT*kA; antisense) [Compound 715633]
YAP1 (% UTC) [1, 7]: 78 % UTC

958375 (antisense kA*kA*kA*dG*d[5mC]*d[5mC]*dT*dT*dA*dG*dA*dG*dT*k[5mC]*kA*kA) [compound 958375]
Kidney weight [4]: 0.39 g
Liver weight [4]: 2.00 g
Spleen weight [4]: 0.12 g
body weight [4]: 23 g
ALT [5]: 2736 U/L
AST [5]: 3013 U/L
BUN [5]: 22 mg/dL
TBIL [5]: 0.43 mg/dL
Yap1 mRNA, % UTC ([6]; Table 56, 15.6 nM): 74 % UTC
Yap1 mRNA, % UTC ([6]; Table 56, 62.5 nM): 35 % UTC
Yap1 mRNA, % UTC ([6]; Table 56, 4000.00 nM): 5 % UTC
pIC50 ([6]; Table 56, A-431 cells 10,000 cells per well): 7.40

958454 (antisense kG*kG*kA*dA*dT*dG*dA*dG*d[5mC]*dT*d[5mC]*dG*dA*kA*k[5mC]*kA) [compound 958454]
Kidney weight [4]: 0.25 g
Liver weight [4]: 0.68 g
Spleen weight [4]: 0.03 g
body weight [4]: 14 g
ALT [5]: 1183 U/L
AST [5]: 2162 U/L
BUN [5]: 45 mg/dL
TBIL [5]: 6.53 mg/dL
Yap1 mRNA, % UTC ([6]; Table 61, 15.6 nM): 72 % UTC
Yap1 mRNA, % UTC ([6]; Table 61, 62.5 nM): 40 % UTC
Yap1 mRNA, % UTC ([6]; Table 61, 4000.00 nM): 4 % UTC
pIC50 ([6]; Table 61, A-431 cells 10,000 cells per well): 7.40
